# Measurements from BindingDB's records for doi:10.1021/jm010294e (Novartis Institute For Biomedical Reasearch, 2001).
# Target: Apolipoprotein B-100 (Homo sapiens, UniProt P04114)
# Experiment: Inhibition of apolipoprotein B (apoB) secreted by human hepatoma cells (Hep G2) […]
# Sequence of Apolipoprotein B-100 (P04114 whole entry C1422Y): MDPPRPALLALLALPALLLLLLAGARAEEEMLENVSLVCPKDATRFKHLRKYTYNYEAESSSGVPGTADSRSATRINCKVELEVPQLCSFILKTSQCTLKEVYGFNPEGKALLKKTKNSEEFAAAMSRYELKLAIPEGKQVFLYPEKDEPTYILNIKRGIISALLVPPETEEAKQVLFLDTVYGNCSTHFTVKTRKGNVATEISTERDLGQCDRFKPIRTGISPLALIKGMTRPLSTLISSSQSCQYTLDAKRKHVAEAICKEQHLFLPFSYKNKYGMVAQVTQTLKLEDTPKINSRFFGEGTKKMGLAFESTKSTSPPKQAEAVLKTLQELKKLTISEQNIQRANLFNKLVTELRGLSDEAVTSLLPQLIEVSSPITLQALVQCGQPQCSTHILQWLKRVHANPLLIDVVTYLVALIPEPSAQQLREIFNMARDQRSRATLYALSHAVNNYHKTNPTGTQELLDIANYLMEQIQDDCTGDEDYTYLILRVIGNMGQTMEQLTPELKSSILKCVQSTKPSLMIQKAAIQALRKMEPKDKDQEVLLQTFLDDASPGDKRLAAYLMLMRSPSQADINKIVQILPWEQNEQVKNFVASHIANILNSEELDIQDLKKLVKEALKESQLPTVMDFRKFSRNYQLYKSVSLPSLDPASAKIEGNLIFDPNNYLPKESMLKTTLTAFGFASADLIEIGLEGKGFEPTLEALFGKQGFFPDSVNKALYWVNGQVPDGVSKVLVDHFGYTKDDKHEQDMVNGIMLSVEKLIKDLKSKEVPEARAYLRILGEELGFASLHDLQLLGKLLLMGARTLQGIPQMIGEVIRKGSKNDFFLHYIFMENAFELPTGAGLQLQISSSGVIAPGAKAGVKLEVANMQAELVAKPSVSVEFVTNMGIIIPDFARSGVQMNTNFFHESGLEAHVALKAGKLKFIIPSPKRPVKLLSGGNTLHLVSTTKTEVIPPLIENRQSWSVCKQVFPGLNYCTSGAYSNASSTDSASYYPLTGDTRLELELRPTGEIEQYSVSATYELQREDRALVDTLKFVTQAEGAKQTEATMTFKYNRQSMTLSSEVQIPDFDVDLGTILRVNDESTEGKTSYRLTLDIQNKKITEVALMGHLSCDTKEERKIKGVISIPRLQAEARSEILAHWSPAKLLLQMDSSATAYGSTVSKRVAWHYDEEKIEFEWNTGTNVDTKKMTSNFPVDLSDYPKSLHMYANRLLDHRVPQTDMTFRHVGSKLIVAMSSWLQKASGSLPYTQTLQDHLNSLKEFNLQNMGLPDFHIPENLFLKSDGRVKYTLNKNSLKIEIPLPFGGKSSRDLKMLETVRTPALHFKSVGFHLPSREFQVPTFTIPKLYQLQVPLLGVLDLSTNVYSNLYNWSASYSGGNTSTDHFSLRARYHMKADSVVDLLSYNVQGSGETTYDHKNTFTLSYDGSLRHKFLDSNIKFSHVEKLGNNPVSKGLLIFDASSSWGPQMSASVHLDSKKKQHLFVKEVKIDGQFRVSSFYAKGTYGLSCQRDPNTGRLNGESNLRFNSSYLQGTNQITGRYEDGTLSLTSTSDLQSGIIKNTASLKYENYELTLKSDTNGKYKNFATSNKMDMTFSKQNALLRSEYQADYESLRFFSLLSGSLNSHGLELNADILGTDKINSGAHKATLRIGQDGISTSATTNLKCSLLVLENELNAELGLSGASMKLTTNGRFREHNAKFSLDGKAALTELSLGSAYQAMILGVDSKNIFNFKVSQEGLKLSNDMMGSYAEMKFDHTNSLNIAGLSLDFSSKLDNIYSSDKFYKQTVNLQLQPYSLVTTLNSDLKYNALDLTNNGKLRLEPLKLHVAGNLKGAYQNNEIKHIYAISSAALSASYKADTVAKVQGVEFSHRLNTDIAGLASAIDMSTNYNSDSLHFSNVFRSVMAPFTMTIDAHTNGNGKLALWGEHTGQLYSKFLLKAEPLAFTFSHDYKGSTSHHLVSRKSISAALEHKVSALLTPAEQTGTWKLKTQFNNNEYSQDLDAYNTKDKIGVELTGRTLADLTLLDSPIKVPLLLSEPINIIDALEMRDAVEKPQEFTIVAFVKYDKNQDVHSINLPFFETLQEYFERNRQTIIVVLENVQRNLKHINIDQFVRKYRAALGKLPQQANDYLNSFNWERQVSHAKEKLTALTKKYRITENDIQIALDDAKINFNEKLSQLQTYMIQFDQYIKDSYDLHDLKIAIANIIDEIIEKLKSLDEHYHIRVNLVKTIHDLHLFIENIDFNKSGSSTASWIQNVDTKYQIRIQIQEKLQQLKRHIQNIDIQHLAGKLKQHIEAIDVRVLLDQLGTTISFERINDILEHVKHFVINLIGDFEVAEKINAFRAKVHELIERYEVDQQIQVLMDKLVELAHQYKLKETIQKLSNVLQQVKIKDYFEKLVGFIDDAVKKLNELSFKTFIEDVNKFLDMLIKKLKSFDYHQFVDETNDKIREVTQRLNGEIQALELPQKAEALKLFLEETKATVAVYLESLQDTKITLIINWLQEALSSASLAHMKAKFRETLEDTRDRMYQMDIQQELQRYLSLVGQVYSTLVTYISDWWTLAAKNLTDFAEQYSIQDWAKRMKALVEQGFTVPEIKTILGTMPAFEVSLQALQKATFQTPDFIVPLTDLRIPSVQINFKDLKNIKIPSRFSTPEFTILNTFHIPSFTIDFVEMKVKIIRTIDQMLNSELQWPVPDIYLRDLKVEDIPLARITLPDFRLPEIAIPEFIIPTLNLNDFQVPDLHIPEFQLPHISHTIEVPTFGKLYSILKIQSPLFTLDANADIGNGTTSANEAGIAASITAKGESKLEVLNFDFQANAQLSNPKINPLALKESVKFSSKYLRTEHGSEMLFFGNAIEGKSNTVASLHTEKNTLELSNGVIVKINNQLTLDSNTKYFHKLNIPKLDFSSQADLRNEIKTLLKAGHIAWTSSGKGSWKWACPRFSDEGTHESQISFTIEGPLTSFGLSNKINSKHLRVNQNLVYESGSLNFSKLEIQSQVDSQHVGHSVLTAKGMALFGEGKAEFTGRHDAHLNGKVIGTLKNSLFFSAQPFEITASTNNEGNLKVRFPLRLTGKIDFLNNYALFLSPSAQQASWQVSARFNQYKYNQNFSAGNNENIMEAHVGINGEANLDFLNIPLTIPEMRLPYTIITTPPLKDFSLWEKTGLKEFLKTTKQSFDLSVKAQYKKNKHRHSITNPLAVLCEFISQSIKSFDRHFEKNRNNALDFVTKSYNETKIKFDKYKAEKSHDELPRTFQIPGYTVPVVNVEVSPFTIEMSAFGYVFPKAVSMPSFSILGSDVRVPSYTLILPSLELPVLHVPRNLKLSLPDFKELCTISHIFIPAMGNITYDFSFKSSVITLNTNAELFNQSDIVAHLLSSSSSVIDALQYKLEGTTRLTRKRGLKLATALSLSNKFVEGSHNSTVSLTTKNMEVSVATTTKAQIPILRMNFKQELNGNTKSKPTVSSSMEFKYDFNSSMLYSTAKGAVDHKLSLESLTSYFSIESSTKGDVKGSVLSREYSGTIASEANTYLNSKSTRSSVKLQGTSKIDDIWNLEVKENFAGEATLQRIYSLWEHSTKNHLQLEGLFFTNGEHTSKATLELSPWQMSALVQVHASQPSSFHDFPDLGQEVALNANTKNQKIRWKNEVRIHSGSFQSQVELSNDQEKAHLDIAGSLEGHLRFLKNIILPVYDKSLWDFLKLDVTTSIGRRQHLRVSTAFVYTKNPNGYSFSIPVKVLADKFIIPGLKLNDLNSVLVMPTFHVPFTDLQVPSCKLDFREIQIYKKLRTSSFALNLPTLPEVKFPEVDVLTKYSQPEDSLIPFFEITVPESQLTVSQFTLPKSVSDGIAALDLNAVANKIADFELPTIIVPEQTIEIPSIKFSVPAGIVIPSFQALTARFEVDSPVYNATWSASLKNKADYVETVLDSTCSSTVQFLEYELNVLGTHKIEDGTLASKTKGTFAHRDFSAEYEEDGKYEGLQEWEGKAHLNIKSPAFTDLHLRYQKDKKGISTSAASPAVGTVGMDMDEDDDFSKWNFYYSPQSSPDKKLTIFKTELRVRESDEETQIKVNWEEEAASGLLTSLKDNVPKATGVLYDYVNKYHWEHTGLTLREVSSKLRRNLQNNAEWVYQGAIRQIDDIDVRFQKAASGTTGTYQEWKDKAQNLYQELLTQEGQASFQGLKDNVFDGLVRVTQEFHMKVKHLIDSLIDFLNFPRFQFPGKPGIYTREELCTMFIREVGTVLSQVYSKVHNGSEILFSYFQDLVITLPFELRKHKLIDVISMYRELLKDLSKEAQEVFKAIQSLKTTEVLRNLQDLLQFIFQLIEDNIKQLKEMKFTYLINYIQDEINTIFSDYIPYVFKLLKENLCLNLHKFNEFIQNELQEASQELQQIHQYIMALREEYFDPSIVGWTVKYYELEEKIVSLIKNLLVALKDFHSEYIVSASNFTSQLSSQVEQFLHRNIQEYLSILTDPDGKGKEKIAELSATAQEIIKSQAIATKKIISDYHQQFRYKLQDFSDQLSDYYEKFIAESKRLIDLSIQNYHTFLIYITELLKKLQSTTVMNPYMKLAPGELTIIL
row,SMILES,IC50 [nM]
1,"COC(=O)NC1Cc2ccc(NC(=O)c3cc(C)cc(C)c3-c3ccc(Cl)cc3)cc2C1 (configuration not stated) [{5-[(4'-Chloro-4,6-dimethyl-biphenyl-2-carbonyl)-amino]-indan-2-yl}-carbamic acid methyl ester]",3.4
2,COC(=O)NCC1Cc2ccc(NC(=O)c3cccc(C)c3-c3ccc(Cl)cc3)cc2C1 (configuration not stated) [{5-[(4'-Chloro-6-methyl-biphenyl-2-carbonyl)-amino]-indan-2-ylmethyl}-carbamic acid methyl ester],8.7
3,COC(=O)N[C@@H]1Cc2ccc(NC(=O)c3ccccc3-c3ccc(C(F)(F)F)cc3)cc2C1 [{5-[(4'-Trifluoromethyl-biphenyl-2-carbonyl)-amino]-indan-2-yl}-carbamic acid methyl ester],5.2
4,"COC(=O)N[C@H]1Cc2ccc(NC(=O)c3cc(C(F)(F)F)ccc3-c3ccc(C(F)(F)F)cc3)cc2C1 [{5-[(4,4'-Bis-trifluoromethyl-biphenyl-2-carbonyl)-amino]-indan-2-yl}-carbamic acid methyl ester]",7.5
5,"COC(=O)N[C@@H]1Cc2ccc(NC(=O)c3cc(C)cc(C)c3-c3ccc(C(F)(F)F)cc3)cc2C1 [{5-[(4,6-Dimethyl-4'-trifluoromethyl-biphenyl-2-carbonyl)-amino]-indan-2-yl}-carbamic acid methyl ester]",2.5
6,COC(=O)N[C@H]1Cc2ccc(NC(=O)c3cc(C)ccc3-c3ccc(C(F)(F)F)cc3)cc2C1 [{5-[(4-Methyl-4'-trifluoromethyl-biphenyl-2-carbonyl)-amino]-indan-2-yl}-carbamic acid methyl ester],2.2
7,COC(=O)NCC1Cc2ccc(NC(=O)c3cccc(C)c3-c3ccc(C(F)(F)F)cc3)cc2C1 (configuration not stated) [{5-[(6-Methyl-4'-trifluoromethyl-biphenyl-2-carbonyl)-amino]-indan-2-ylmethyl}-carbamic acid methyl ester],4.1

# Continued, values first:
row,IC50 [nM],SMILES
1,1.9,COC(=O)N[C@H]1Cc2ccc(NC(=O)c3ccccc3-c3ccc(C(F)(F)F)cc3)cc2C1 [{5-[(4'-Trifluoromethyl-biphenyl-2-carbonyl)-amino]-indan-2-yl}-carbamic acid methyl ester]
2,2.2,"COC(=O)NCC1Cc2ccc(NC(=O)c3cc(C)cc(C)c3-c3ccc(C(F)(F)F)cc3)cc2C1 (configuration not stated) [{5-[(4,6-Dimethyl-4'-trifluoromethyl-biphenyl-2-carbonyl)-amino]-indan-2-ylmethyl}-carbamic acid methyl ester]"
3,1.1,"COC(=O)N[C@H]1Cc2ccc(NC(=O)c3cc(C)cc(C)c3-c3ccc(C(F)(F)F)cc3)cc2C1 [{5-[(4,6-Dimethyl-4'-trifluoromethyl-biphenyl-2-carbonyl)-amino]-indan-2-yl}-carbamic acid methyl ester]"
4,1.8,"COC(=O)N[C@H]1Cc2ccc(NC(=O)c3cccc(C(F)(F)F)c3-c3ccc(C(F)(F)F)cc3)cc2C1 [{5-[(6,4'-Bis-trifluoromethyl-biphenyl-2-carbonyl)-amino]-indan-2-yl}-carbamic acid methyl ester]"
5,0.7,COC(=O)N[C@H]1Cc2ccc(NC(=O)c3cccc(C)c3-c3ccc(C(F)(F)F)cc3)cc2C1 [{5-[(6-Methyl-4'-trifluoromethyl-biphenyl-2-carbonyl)-amino]-indan-2-yl}-carbamic acid methyl ester]
